Source: patent publication US20260055079A1, “PHTHALAZINONE COMPOUNDS AS PARP7 INHIBITORS” (AZKARRA THERAPEUTICS, INC., priority 2022, published 2026)
Read-outs that look alike come from different tables or passages of the source.

Columns and labels:
[1] = tested on: AHR ligand-mediated gene transcription; assay: CYP1A1 mRNA by qPCR in mouse embryonic fibroblasts; type: cell-based; settings: MEFs, with or without AHR agonist TCDD
Description: FIG. 2A provides CYP1A1 mRNA levels assessed by qPCR after treatment of wild type (WT) MEFs with increasing concentrations of Example 10 in the presence (gray bars) or absence (black bars) of the AHR agonist TCDD (1 nM). FIG. 2B provides the same as in FIG. 2A except with PARP7^−/− MEFs. FIG. 2C provides CYP1A1 mRNA levels assessed by qPCR after treatment of wild type (WT) MEFs with increasing concentrations of TCDD in the presence (gray bars) or absence (black bars) of 100 nM Example 10. FIG. 2D provides the same as in FIG. 2C, except with PARP7−/− MEFs.

[2] = biological target: T1, PARP2 (Homo sapiens (Human), UniProt Q9UGN5); assay: PARP2 biochemical assay; settings: read-out: PARP2 IC50
[3] = tested on: NCI-H1373 (human lung adenocarcinoma) cells; assay: Cell proliferation assay (CellTiter-Glo), NCI-H1373; type: cell-based; settings: Homo sapiens, NCI-H1373, 144 h; 6 days, CellTiter-Glo; read-out: NCI-H1373 GI50
[4] = tested on: HARA (human lung squamous cell carcinoma) cells; assay: Cell proliferation assay (CellTiter-Glo), HARA; type: cell-based; settings: Homo sapiens, 144 h; 6 days, CellTiter-Glo; read-out: HARA GI50
[5] = tested on: CT26 (mouse colon adenocarcinoma) cells; assay: Cell proliferation assay (CellTiter-Glo), CT26; type: cell-based; settings: Mus musculus, CT26, 144 h, 6 days
[6] = biological target: PARP1 (Homo sapiens (Human), UniProt P09874); assay: PASTA biochemical PARP screening assay, PARP1
[7] = biological target: T1, PARP2; assay: PASTA biochemical PARP screening assay, PARP2
[8] = biological target: PARP3 (Homo sapiens (Human), UniProt Q9Y6F1); assay: PASTA biochemical PARP screening assay, PARP3
Description: For PARP3, PARP4bc, and PARP16, 200-350 ng of PARP was directly adhered to nickel coated 96-well plates for 60 min at 25° C. in PBR PARP3 was activated by Dnick 5'P as previously described (Langelier, Marie-France et al. Nucleic acids research vol. 42, 12 (2014): 7762-75.). The plate was washed three times with PBST, once with PBS, and once with PBR. Varying concentrations of inhibitor were pre-incubated with NAD^+ and added to the plate (final NAD^+ concentration: 100 μM for PARP3, PARP4bc; 400 μM for PARP16). The plate was incubated at 30° C. for 60 min, then washed three times with PBST before blocking with 5% Milk in PBST. […] The plate was then washed three times with PBST and once with PBS before developing as described previously.

[9] = biological target: PARP4bc (Homo sapiens, UniProt Q9UKK3); assay: PASTA biochemical PARP screening assay, PARP4bc
[10] = biological target: PARP6 (Homo sapiens (Human), UniProt Q2NL67); assay: PASTA biochemical PARP screening assay, PARP6
[11] = biological target: GST-tagged PARP7 (Homo sapiens (Human), UniProt Q7Z3E1); assay: PASTA biochemical PARP screening assay, PARP7
Description: GST-tagged PARP7 was expressed and purified as previously described (Hutin et al., 2018). Proteins were quantified by an in-gel standard curve of Bovine Serum Albumin (Bio-Rad). For PARP7, 250 ng of PARP7 was adhered to glutathione coated 96-well plates (Thermo Scientific) in PBR for 60 min at RT. […] After washing, varying concentrations of each inhibitor was pre-incubated with 20 μM (2×) 6-a-NAD^+. The solution was added to the plate, diluted to 1× in PBR, and incubated at 30° C. for 60 min. […] The plate was subsequently washed three times in PBST and once in PBS before incubation with Strep-HRP (300 ng/μl BSA, 0.05 ng/μl Strep-HRP (Jackson ImmunoResearch), 1×PBS) for 30 min at RT. The plate was washed three time in PBST and once in PBS before development with QuantaRed Enhanced Chemifluorescent HRP Substrate as described previously.

[12] = biological target: PARP8 (Homo sapiens (Human), UniProt Q8N3A8); assay: PASTA biochemical PARP screening assay, PARP8
[13] = biological target: PARP10 (Homo sapiens (Human), UniProt Q53GL7); assay: PASTA biochemical PARP screening assay, PARP10
[14] = biological target: PARP11 (Homo sapiens (Human), UniProt Q9NR21); assay: PASTA biochemical PARP screening assay, PARP11
[15] = biological target: PARP12cat (Homo sapiens (Human), UniProt Q9H0J9); assay: PASTA biochemical PARP screening assay, PARP12cat
[16] = biological target: PARP14wwe (Homo sapiens, UniProt Q460N5); assay: PASTA biochemical PARP screening assay, PARP14wwe
[17] = biological target: PARP15cat (Homo sapiens (Human), UniProt Q460N3); assay: PASTA biochemical PARP screening assay, PARP15cat
[18] = biological target: PARP16 (Homo sapiens (Human), UniProt Q8N5Y8); assay: PASTA biochemical PARP screening assay, PARP16
[19] = biological target: GFP-PARP7 (Homo sapiens (Human), UniProt Q7Z3E1); assay: PARP7 MARylation in GFP-PARP7 expressing HEK 293T cells (western blot); type: cell-based; settings: read-out: EC50, decrease in PARP7 MARylation
[20] = tested on: NCI-H1373 cells; assay: Cell Titer-Glo viability, NCI-H1373; type: cell-based
Description: NCI-H1373 cells were seeded in a white 96-well plate (Corning) at a density of 1,000 cells per well. After 24 hours, cells were treated with PARP7 inhibitors and incubated at 37° C. for 6 days. Cell viability was assessed using CellTiter-Glo (CTG) 2.0 (Promega). After addition of the CTG reagent (following manufacturer protocol), the plate was incubated on an orbital shaker for 15 min (protected from light) at room temperature. Chemiluminescence was measured on a Spectra Max i3 (Molecular Devices), normalized to DMSO-treated wells, and IC50 values were calculated by non-linear regression (three-parameter fit) analysis using Prism 9 (GraphPad).

[21] = tested on: AHR target gene CYP1A1; assay: CYP1A1 mRNA (AHR target gene) by RT-qPCR in MEFs; type: cell-based, mouse; settings: WT MEFs
[22] = tested on: IFN-β mRNA; assay: IFN-β mRNA by RT-qPCR in MEFs; type: cell-based, mouse; settings: 100 nM alone

Sequence of GST-tagged PARP7 (Q7Z3E1 whole entry): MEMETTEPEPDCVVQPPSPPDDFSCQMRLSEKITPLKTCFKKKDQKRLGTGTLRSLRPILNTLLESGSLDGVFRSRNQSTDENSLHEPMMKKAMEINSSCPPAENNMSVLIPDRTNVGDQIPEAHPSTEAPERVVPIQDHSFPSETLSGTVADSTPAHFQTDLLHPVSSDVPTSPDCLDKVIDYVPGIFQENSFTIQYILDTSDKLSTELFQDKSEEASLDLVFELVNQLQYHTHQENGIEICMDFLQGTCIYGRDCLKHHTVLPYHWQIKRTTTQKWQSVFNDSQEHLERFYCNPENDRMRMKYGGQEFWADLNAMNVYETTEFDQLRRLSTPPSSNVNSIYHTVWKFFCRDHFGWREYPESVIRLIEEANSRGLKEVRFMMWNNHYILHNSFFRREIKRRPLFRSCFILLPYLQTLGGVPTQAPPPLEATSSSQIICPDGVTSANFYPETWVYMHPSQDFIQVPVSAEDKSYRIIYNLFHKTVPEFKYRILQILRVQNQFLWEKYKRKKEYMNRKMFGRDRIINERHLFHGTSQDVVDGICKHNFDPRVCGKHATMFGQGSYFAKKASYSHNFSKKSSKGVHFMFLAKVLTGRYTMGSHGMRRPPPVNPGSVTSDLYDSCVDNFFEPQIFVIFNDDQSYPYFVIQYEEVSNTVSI
T1 sequence (Q9UGN5 whole entry): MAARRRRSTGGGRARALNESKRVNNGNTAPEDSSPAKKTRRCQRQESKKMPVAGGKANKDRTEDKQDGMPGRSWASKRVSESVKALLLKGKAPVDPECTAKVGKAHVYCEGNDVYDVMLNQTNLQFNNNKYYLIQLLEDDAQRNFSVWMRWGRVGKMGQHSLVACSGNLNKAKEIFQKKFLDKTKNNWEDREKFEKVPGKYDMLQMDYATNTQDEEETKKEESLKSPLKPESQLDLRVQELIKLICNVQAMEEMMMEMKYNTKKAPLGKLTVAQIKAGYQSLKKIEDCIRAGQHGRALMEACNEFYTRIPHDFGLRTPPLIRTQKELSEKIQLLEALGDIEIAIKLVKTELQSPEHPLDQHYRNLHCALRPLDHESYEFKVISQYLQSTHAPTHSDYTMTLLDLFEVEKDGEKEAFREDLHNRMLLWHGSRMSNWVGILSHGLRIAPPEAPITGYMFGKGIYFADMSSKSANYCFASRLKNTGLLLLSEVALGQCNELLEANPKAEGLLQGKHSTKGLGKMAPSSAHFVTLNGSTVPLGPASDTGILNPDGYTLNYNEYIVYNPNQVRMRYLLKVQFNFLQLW
Sequence of PARP1 (P09874 whole entry, species assumed): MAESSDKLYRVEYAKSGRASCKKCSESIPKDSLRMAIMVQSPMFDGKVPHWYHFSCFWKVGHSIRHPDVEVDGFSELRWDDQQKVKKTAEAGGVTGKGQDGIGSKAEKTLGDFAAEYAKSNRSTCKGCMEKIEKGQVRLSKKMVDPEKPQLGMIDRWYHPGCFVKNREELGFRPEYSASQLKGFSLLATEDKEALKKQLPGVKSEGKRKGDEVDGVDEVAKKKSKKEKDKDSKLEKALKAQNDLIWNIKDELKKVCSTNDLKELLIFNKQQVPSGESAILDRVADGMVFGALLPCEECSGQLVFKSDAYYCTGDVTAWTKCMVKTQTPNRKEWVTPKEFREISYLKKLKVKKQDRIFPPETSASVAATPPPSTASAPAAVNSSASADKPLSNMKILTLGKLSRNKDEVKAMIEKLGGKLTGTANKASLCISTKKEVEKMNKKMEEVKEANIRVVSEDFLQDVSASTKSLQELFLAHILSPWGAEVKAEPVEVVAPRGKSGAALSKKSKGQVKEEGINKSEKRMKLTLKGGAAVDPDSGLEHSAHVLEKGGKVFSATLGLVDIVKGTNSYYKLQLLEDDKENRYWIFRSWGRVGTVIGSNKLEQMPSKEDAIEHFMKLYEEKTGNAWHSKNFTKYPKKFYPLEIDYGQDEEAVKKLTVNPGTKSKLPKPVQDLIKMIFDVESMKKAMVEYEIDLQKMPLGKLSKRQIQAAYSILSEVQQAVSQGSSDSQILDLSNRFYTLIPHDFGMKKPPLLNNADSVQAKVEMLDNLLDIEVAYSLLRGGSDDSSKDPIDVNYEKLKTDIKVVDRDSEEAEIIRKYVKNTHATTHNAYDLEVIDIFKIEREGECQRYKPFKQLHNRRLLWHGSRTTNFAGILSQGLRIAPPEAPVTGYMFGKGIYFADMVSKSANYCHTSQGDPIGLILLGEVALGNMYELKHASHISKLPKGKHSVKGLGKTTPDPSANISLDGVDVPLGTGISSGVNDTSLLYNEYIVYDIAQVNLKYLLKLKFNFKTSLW
Sequence of GFP-PARP7 (Q7Z3E1 whole entry): as the sequence (Q7Z3E1 whole entry) above
Sequence of PARP14wwe (Q460N5 whole entry, looked up): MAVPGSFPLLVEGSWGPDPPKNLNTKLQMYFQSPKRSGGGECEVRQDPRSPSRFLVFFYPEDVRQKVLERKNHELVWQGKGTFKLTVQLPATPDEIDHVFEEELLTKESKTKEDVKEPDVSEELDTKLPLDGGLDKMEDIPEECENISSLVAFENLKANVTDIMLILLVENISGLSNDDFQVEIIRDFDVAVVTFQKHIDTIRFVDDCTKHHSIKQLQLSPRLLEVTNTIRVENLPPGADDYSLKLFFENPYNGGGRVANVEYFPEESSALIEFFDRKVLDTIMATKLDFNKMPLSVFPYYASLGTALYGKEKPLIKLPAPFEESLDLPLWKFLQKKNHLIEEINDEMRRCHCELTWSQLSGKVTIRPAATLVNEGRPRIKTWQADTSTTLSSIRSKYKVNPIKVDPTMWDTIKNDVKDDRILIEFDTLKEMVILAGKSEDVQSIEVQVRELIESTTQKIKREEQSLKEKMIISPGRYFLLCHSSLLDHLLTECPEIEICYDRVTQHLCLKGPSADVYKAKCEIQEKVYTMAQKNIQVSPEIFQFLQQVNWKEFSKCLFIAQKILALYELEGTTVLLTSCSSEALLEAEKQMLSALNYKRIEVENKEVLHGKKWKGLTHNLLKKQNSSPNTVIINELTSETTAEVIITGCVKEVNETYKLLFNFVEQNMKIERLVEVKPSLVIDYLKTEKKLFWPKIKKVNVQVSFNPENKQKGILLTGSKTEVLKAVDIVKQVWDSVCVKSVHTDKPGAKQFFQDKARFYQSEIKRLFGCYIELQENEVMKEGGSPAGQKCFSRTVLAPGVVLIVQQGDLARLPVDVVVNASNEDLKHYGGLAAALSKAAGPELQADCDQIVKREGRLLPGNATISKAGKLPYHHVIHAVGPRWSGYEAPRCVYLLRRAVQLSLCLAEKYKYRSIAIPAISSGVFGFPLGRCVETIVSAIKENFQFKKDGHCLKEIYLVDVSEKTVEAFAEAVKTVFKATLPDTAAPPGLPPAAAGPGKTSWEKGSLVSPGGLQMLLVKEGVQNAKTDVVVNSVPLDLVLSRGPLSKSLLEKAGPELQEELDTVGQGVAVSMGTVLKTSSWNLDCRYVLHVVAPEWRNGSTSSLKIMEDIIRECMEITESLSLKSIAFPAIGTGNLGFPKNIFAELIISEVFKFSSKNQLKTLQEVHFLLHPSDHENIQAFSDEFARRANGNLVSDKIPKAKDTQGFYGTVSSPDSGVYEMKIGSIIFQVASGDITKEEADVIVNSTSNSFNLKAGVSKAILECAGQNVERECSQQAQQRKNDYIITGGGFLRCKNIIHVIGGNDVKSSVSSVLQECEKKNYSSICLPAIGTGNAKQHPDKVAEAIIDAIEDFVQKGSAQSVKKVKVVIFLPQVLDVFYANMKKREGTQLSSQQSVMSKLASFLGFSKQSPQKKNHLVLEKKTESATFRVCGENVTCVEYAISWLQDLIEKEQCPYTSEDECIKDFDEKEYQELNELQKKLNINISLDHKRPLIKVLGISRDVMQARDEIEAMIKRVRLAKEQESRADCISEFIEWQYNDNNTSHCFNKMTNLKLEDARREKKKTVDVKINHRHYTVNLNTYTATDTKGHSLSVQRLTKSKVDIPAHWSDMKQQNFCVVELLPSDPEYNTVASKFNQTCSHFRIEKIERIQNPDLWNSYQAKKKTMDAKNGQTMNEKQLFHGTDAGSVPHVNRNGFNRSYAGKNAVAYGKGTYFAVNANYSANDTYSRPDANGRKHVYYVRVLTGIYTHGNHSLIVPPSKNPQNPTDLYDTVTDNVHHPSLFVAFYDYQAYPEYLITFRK
Sequence of PARP10 (Q53GL7 whole entry, species assumed): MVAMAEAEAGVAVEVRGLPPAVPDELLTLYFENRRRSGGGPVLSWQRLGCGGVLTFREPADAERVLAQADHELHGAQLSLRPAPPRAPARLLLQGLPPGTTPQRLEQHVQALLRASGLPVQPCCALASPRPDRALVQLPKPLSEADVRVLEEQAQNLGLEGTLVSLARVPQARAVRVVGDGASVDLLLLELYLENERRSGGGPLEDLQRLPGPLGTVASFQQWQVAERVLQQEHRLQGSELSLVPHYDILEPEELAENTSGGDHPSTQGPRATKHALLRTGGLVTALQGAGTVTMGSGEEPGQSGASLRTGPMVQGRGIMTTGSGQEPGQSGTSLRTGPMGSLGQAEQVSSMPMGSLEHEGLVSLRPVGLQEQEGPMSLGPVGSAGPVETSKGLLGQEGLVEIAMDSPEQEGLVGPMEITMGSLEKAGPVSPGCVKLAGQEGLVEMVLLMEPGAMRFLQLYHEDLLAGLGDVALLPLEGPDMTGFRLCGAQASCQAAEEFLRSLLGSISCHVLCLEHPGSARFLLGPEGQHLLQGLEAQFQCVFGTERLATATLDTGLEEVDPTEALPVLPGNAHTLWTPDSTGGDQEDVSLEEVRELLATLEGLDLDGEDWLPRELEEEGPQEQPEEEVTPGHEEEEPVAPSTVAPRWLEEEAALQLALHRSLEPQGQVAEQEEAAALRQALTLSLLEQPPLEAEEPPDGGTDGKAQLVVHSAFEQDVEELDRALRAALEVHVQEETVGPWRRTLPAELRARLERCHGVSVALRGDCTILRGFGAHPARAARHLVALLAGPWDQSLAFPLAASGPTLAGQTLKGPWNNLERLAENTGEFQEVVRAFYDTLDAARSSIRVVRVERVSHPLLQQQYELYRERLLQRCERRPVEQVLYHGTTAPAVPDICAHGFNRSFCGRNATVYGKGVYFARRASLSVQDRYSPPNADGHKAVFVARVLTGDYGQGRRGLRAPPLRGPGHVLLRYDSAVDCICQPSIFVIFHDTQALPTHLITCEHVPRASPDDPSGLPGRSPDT

Compound: CC#Cc1ccc2c(=O)[nH]nc(Cc3ccc(F)c(C(=O)N4CCN(c5ccc(C#N)cn5)CC4)c3)c2c1 [Example 10, 6-(4-(2-Fluoro-5-((4-oxo-7-(prop-1-ynyl)-3,4-dihydrophthalazin-1-yl)methyl)benzoyl)piperazin-1-yl)nicotinonitrile]
- AHR ligand-mediated gene transcription (CYP1A1 mRNA) [1]: derepresses AHR ligand-mediated gene transcription
- IC50 [2]: 100 to 500 nM
- GI50 [3]: < 100 nM
- GI50 [4]: 1000 to 5000 nM
- GI50 [5]: > 5000 nM
- IC50 ([6]; read-out: IC50 PARP1): > 3000 nM
- IC50 ([6]; read-out: does not inhibit PARP1 up to): > 3000 nM
- IC50 [7]: 1020 nM
- IC50 [8]: > 3000 nM
- IC50 [9]: > 3000 nM
- IC50 [10]: 775 nM
- IC50 [11]: 13.7 nM
- selectivity for PARP7 over PARP2 [11]: ~75 fold
- selectivity for PARP7 over PARP10 and PARP11 [11]: ~10 fold
- selectivity for PARP7 over most PARP family members beyond PARP1 and PARP2 [11]: > 50 fold
- IC50 [12]: > 3000 nM
- IC50 [13]: 179 nM
- IC50 [14]: 134 nM
- IC50 [15]: 762 nM
- IC50 [16]: 1040 nM
- IC50 [17]: 770 nM
- IC50 [18]: 1060 nM
- EC50 [19]: 8 nM
- less potent than RBN-2397 on NCI-H1373 [20]: ~6 fold
- EC50 ([20]; Homo sapiens, NCI-H1373, 144 h, 6 days, CellTiter-Glo): 104 nM
- CYP1A1 mRNA levels ([21]; in the absence of TCDD): had no effect on CYP1A1 mRNA levels
- CYP1A1 mRNA levels ([21]; in the presence of 1 nM TCDD): dramatically increased CYP1A1 mRNA levels
- increase in IFN-β mRNA [22]: 3 fold
